{
  "source": "patent US20120077831A1",
  "about": "“METHODS AND ASSAYS FOR THE TREATMENT OF IRRITABLE BOWEL SYNDROME” (priority 2009, published 2012)",
  "key": {"[1]": {"test_system": "patients suffering from IBS-D or IBS-A", "assay": "phase 2a clinical trial in IBS patients: weekly global assessment and Bristol Stool Scale", "type": "in vivo, human", "method": "(§1) A randomized, double-blind, placebo-controlled phase 2a clinical trial was conducted to assess the safety and efficacy of a TPH inhibitor, (S)-2-amino-3-(4-(2-amino-6-((R)-2,2,2-trifluoro-1-(3′-methoxybiphenyl-4-yl)ethoxy)pyrimidin-4-yl)phenyl)propanoic acid, in 155 patients suffering from IBS-D or IBS-A, based on Rome III criteria. Capsules containing the compound or placebo were orally administered. Two dose levels were tested: 250 mg QID and 1000 mg QID. A two-week run-in period was used to establish baseline symptoms, followed by a 28 day randomized, double-blind treatment period. There was then a two-week follow-up period.\n(§2) During the study, patients' urine and blood were obtained to assess 5-HIAA and 5-HT levels. Methods used to assess clinical endpoints were: 1) global assessment by weekly questioning regarding adequate relief of IBS pain and discomfort; and 2) Bristol Stool Scale was used to assess stool consistency by daily automated telephonic IVRS contact."}, "5-HIAA and 5-HT levels": {"test_system": "5-HIAA and 5-HT levels", "assay": "phase 2a clinical trial in IBS patients: blood 5-HT and 24 hour urinary 5-HIAA levels", "type": "in vivo, human", "details": "oral dosing", "method": "as §1, §2"}},
  "data": [
    {"smiles": "COc1cccc(-c2ccc([C@@H](Oc3cc(-c4ccc(C[C@H](N)C(=O)O)cc4)nc(N)n3)C(F)(F)F)cc2)c1", "note": "[(S)-2-amino-3-(4-(2-amino-6-((R)-2,2,2-trifluoro-1-(3′-methoxybiphenyl-4-yl)ethoxy)pyrimidin-4-yl)phenyl)propanoic acid]", "values": [
      {"measurement": "improvement in global response in relation to baseline serotonin levels (5-HIAA in 24 hour urine prior to dosing)", "setting": "[1]; IBS patients with comparatively high baseline levels versus those without", "result": "greater beneficial effect in IBS patients who had comparatively high baseline levels"},
      {"measurement": "weekly global assessment (adequate relief of IBS pain and discomfort)", "setting": "[1]; high dose arm (1000 mg QID, oral capsules) versus placebo, 28 day treatment period", "result": "statistically significant improvement versus placebo"},
      {"measurement": "stool consistency (Bristol Stool Scale)", "setting": "[1]; high dose arm (1000 mg QID, oral capsules), 28 day treatment period", "result": "significant improvement"},
      {"measurement": "24 hour urinary 5-HIAA levels", "setting": "5-HIAA and 5-HT levels", "result": "significant reduction"},
      {"measurement": "blood 5-HT levels", "setting": "5-HIAA and 5-HT levels", "result": "reduction"}
    ]}
  ]
}
